According to patent publication US12685312B2, “Sulfonamide apyrase inhibitors” (Texas Crop Science, Inc., priority 2022, dated 2026):

Tested on: apyrase
Test: Screen for apyrase inhibitors (Method 1, in vitro phosphate-release absorbance assay)
Assay type: biochemical
Conditions: inhibitor conc at 1 mM stock, 1 hr room temperature, absorbance 630 nm; rounded average of two assay results
Experimental: Apyrase inhibitors useful as enhancers of pesticidal activity are assessed using an in vitro assay. The method of Windsor, Bio Techniques 33:1024-1030 (November 2002) was used as follows Screen for Apyrase Inhibitors- 96 well plates were used for the assay: (Greiner bio-one: REF-655901-96 well, PS, F-bottom, Clear, Non-binding) Buffers: • Reaction Buffer: 60 mM Hepes; 3 mM MgCl2, 3 mM CaCl2 and 3 mM ATP (pH 6.5) • Development Buffer A: 2% aqueous ammonium molybdate • Development Buffer B: 11% ascorbic acid in 37.5% TCA in water • Stop buffer C: 2% trisodium citrate in 2% acetic acid solution in water • Add 100 μl of reaction buffer to each well. • Add 10 μl of DMSO (control) or inhibitor/compound or compounds such as […] or orthovanadate to each well. […] A blank cell indicates either <10% observed inhibition or a large difference between repetitions. In certain examples, the lack of observed inhibition is due to a lack of solubility of the compound under assay conditions, rather than a lack of apyrase inhibitory activity.

| SMILES | % Inhibition of Apyrase [%] |
| --- | --- |
| O=C(Nc1ccc(OC(F)F)cc1)c1ccccc1S(=O)(=O)Nc1cccc(C(F)(F)F)c1 [I-1, N-(4-(difluoromethoxy)phenyl)-2-(N-(3-(trifluoromethyl)phenyl)sulfamoyl)benzamide] | 84 |
| O=C(Nc1cccc([N+](=O)[O-])c1)c1cccc(S(=O)(=O)Nc2cc(C(F)(F)F)ccc2Cl)c1 [I-3, 3-(N-(2-chloro-5-(trifluoromethyl)phenyl)sulfamoyl)-N-(3-nitrophenyl)benzamide] | 73 |
| CC1CCc2c(sc(NC(=O)c3cccc(S(=O)(=O)Nc4ccc(Br)cc4)c3)c2C#N)C1 (stereo not shown) [I-9, 3-(N-(4-bromophenyl)sulfamoyl)-N-(3-cyano-6-methyl-4,5,6,7-tetrahydrobenzo[b]thiophen-2-yl)benzamide] | 61 |
| Cc1c(NC(=O)c2cccc(S(=O)(=O)Nc3ccc4c(c3)OCO4)c2)cccc1[N+](=O)[O-] [I-10, 3-(N-(benzo[d][1,3]dioxol-5-yl)sulfamoyl)-N-(2-methyl-3-nitrophenyl)benzamide] | 60 |
| O=C(Nc1cccc([N+](=O)[O-])c1)c1cc(S(=O)(=O)Nc2cccc(F)c2)ccc1Cl [I-11, 2-chloro-5-(N-(3-fluorophenyl)sulfamoyl)-N-(3-nitrophenyl)benzamide] | 60 |
| Cn1cc(O)nc1NC(=O)c1cccc(S(=O)(=O)Nc2ccc(Br)cc2)c1 [I-12, 3-(N-(4-bromophenyl)sulfamoyl)-N-(4-hydroxy-1-methyl-1H-imidazol-2-yl)benzamide] | 59 |
| O=C(c1cccc(S(=O)(=O)Nc2ccc(Br)cc2)c1)N1CCc2ccccc21 [I-13, N-(4-bromophenyl)-3-(indoline-1-carbonyl)benzenesulfonamide] | 59 |
| Cc1ccc(S(=O)(=O)Nc2cccc(C(=O)Nc3cccc(C)c3)c2)cc1 [I-14, 3-((4-methylphenyl)sulfonamido)-N-(m-tolyl)benzamide] | 59 |
| NC(=O)OCCNC(=O)c1cccc(S(=O)(=O)Nc2ccc(Br)cc2)c1 [I-17, 2-(3-(N-(4-bromophenyl)sulfamoyl)benzamido)ethyl carbamate] | 52 |
| Cc1ccc([N+](=O)[O-])cc1NC(=O)c1ccc(Cl)c(S(=O)(=O)Nc2cccc(C)c2C)c1 [I-25, 4-chloro-3-(N-(2,3-dimethylphenyl)sulfamoyl)-N-(2-methyl-5-nitrophenyl)benzamide] | 28 |
| COc1ccc(NS(=O)(=O)c2cccc(NC(=O)c3cccc(-n4cccc4)c3)c2)cc1 [I-27, N-(3-(N-(4-methoxyphenyl)sulfamoyl)phenyl)-3-(1H-pyrrol-1-yl)benzamide] | 24 |
| CC(=O)c1cccc(NS(=O)(=O)c2cc(C(=O)Nc3cccc([N+](=O)[O-])c3)ccc2C)c1 [I-29, 3-(N-(3-acetylphenyl)sulfamoyl)-4-methyl-N-(3-nitrophenyl)benzamide] | 22 |
| O=C(Nc1cccnc1)c1cccc(S(=O)(=O)Nc2cccc(C(F)(F)F)c2)c1 [I-30, N-(pyridin-3-yl)-3-(N-(3-(trifluoromethyl)phenyl)sulfamoyl)benzamide] | 21 |
| O=C(Nc1cccc([N+](=O)[O-])c1)c1cccc(S(=O)(=O)Nc2cccc([N+](=O)[O-])c2)c1 [I-32, N-(3-nitrophenyl)-3-(N-(3-nitrophenyl)sulfamoyl)benzamide] | 21 |
| Cc1ccccc1NC(=O)c1cc(S(=O)(=O)Nc2ccc(Br)cc2)ccc1Cl [I-36, 5-(N-(4-bromophenyl)sulfamoyl)-2-chloro-N-(o-tolyl)benzamide] | 16 |
| O=C(Nc1cccc([N+](=O)[O-])c1)c1cccc(S(=O)(=O)N2CCc3ccccc32)c1 [I-38, 3-(indolin-1-ylsulfonyl)-N-(3-nitrophenyl)benzamide] | 14 |
| Cc1c(NC(=O)c2ccc(Cl)c(S(=O)(=O)Nc3ccccc3)c2)cccc1[N+](=O)[O-] [I-39, 4-chloro-N-(2-methyl-3-nitrophenyl)-3-(N-phenylsulfamoyl)benzamide] | 14 |
| Cc1ccccc1NS(=O)(=O)c1cccc(C(=O)Nc2cccc([N+](=O)[O-])c2)c1 [I-40, N-(3-nitrophenyl)-3-(N-(o-tolyl)sulfamoyl)benzamide] | 14 |
| O=C(NCCC1CCCO1)c1cccc(S(=O)(=O)Nc2ccc(Br)cc2)c1 (stereo not shown) [I-42, 3-(N-(4-bromophenyl)sulfamoyl)-N-(2-(tetrahydrofuran-2-yl)ethyl)benzamide] | 13 |
| O=C(Nc1ccccc1[N+](=O)[O-])c1cc(S(=O)(=O)Nc2ccc(Br)cc2)ccc1Cl [I-44, 5-(N-(4-bromophenyl)sulfamoyl)-2-chloro-N-(2-nitrophenyl)benzamide] | 13 |

Results, then the compound that gave them:

| % Inhibition of Apyrase [%] | SMILES |
| --- | --- |
| 73 | O=C(Nc1ccc(F)c([N+](=O)[O-])c1)c1ccc(S(=O)(=O)Nc2ccc(Cl)cc2)cc1 [I-4, 4-(N-(4-chlorophenyl)sulfamoyl)-N-(4-fluoro-3-nitrophenyl)benzamide] |
| 71 | Cc1ccc(NS(=O)(=O)c2cc(C(=O)Nc3cccc([N+](=O)[O-])c3)ccc2C)cc1C [I-5, 3-(N-(3,4-dimethylphenyl)sulfamoyl)-4-methyl-N-(3-nitrophenyl)benzamide] |
| 69 | Cc1ccc(C(=O)Nc2ccc([N+](=O)[O-])cc2)cc1S(=O)(=O)Nc1ccc(Br)cc1 [I-6, 3-(N-(4-bromophenyl)sulfamoyl)-4-methyl-N-(4-nitrophenyl)benzamide] |
| 67 | Cc1cccc(NC(=O)c2cccc(NS(=O)(=O)c3ccc(Cl)cc3)c2)c1 [I-7, 3-((4-chlorophenyl)sulfonamido)-N-(m-tolyl)benzamide] |
| 55 | COc1ccc(C(=O)Nc2cccc(Cl)c2)cc1S(=O)(=O)Nc1ccc(Br)cc1 [I-15, 3-(N-(4-bromophenyl)sulfamoyl)-N-(3-chlorophenyl)-4-methoxybenzamide] |
| 50 | O=C(Nc1cccc([N+](=O)[O-])c1)c1ccc(Br)c(S(=O)(=O)Nc2ccc(F)cc2)c1 [I-19, 4-bromo-3-(N-(4-fluorophenyl)sulfamoyl)-N-(3-nitrophenyl)benzamide] |
| 45 | O=C(Nc1ccc(Br)cc1)c1cccc(S(=O)(=O)Nc2ccc(Br)cc2)c1 [I-20, N-(4-bromophenyl)-3-(N-(4-bromophenyl)sulfamoyl)benzamide] |
| 45 | O=C(Nc1cccc([N+](=O)[O-])c1)c1cccc(S(=O)(=O)Nc2ccc(Cl)cc2)c1 [I-21, 3-(N-(4-chlorophenyl)sulfamoyl)-N-(3-nitrophenyl)benzamide] |
| 38 | O=C(Nc1cccc([N+](=O)[O-])c1)c1ccc(Br)c(S(=O)(=O)Nc2ccc(Br)cc2)c1 [I-22, 4-bromo-3-(N-(4-bromophenyl)sulfamoyl)-N-(3-nitrophenyl)benzamide] |
| 30 | O=C(Nc1cccc([N+](=O)[O-])c1)c1ccc(Br)c(S(=O)(=O)Nc2cccc(F)c2)c1 [I-23, 4-bromo-3-(N-(3-fluorophenyl)sulfamoyl)-N-(3-nitrophenyl)benzamide] |
| 29 | O=C(Nc1ccc(Br)cc1)c1cccc(S(=O)(=O)Nc2cccc([N+](=O)[O-])c2)c1 [I-24, N-(4-bromophenyl)-3-(N-(3-nitrophenyl)sulfamoyl)benzamide] |
| 28 | COc1ccc(C(=O)Nc2ccc(F)c(F)c2)cc1S(=O)(=O)Nc1ccc(Br)cc1 [I-26, 3-(N-(4-bromophenyl)sulfamoyl)-N-(3,4-difluorophenyl)-4-methoxybenzamide] |
| 23 | COc1ccc([N+](=O)[O-])cc1NC(=O)c1ccc(C)c(S(=O)(=O)Nc2ccccc2)c1 [I-28, N-(2-methoxy-5-nitrophenyl)-4-methyl-3-(N-phenylsulfamoyl)benzamide] |
| 21 | O=C(Nc1cccc([N+](=O)[O-])c1)c1cccc(S(=O)(=O)Nc2ccc(F)cc2)c1 [I-31, 3-(N-(4-fluorophenyl)sulfamoyl)-N-(3-nitrophenyl)benzamide] |
| 19 | COc1ccc(C(=O)Nc2ccc(Cl)cc2)cc1S(=O)(=O)Nc1ccc(Br)cc1 [I-33, 3-(N-(4-bromophenyl)sulfamoyl)-N-(4-chlorophenyl)-4-methoxybenzamide] |
| 18 | O=C(Nc1cccc([N+](=O)[O-])c1)c1ccc(Br)c(S(=O)(=O)Nc2ccccc2)c1 [I-34, 4-bromo-N-(3-nitrophenyl)-3-(N-phenylsulfamoyl)benzamide] |
| 17 | Cc1ccc(C(=O)Nc2cccc(C(=O)O)c2)cc1S(=O)(=O)Nc1ccc(Br)cc1 [I-35, 3-(3-(N-(4-bromophenyl)sulfamoyl)-4-methylbenzamido)benzoic acid] |
| 13 | COc1ccc([N+](=O)[O-])cc1NC(=O)c1cccc(S(=O)(=O)Nc2ccc(Cl)cc2)c1 [I-41, 3-(N-(4-chlorophenyl)sulfamoyl)-N-(2-methoxy-5-nitrophenyl)benzamide] |
| 13 | O=C(Nc1ccccc1)c1ccc(Cl)c(S(=O)(=O)Nc2ccc(Br)cc2)c1 [I-43, 3-(N-(4-bromophenyl)sulfamoyl)-4-chloro-N-phenylbenzamide] |
| 13 | Cc1ccc(C(=O)Nc2cccc([N+](=O)[O-])c2)cc1S(=O)(=O)Nc1ccc(C(=O)O)cc1 [I-45, 4-((2-methyl-5-((3-nitrophenyl)carbamoyl)phenyl)sulfonamido) benzoic acid] |
